According to US20080153866A1, “Amorphous Taclolimus Solid Dispersion Having an Enhanced Solubility and Pharmaceutical Composition Comprising Same” (Hinmi Pharm Co., Ltd, priority 2005, published 2008):

Assays:
[1] = Thermodynamic stability test (endothermic peak in DSC scan); assay type: physicochemical
Text: The mixture of Comparative Example 1, solid dispersion of Example 1 and crystalline taclolimus were each subjected to a thermodynamic stability test by examining the change in the endothermic peak in its DSC scan. The temperatures representing respective endothermic peaks are represented in Table 17, and the overall DSC results are shown in FIG. 1.

[2] = cited from earlier work

In the case of `C=CC[C@@H]1/C=C(\C)C[C@H](C)C[C@H](OC)[C@H]2O[C@@](O)(C(=O)C(=O)N3CCCCC3C(=O)O[C@H](/C(C)=C/C3CC[C@@H](O)[C@H](OC)C3)[C@H](C)[C@@H](O)CC1=O)[C@H](C)C[C@@H]2OC` (stereo partly drawn) [Taclolimus, (—)-(1R,9S,13R,14S,17R,18E,21S,23S,24R,25S,27R)-17-allyl-1,14-dihydroxy-12-[(E)-2-[(1R,3R,4R)-4-hydroxy-3-methoxycyclohexyl]-1-methylvinyl]-23,25-dimethoxy-13,19,21,27-tetramethyl-11,28-dioxa-4-azatricyclo[22.3.1.0^4.9]octacos-18-ene-2,3,10,16-tetrone hydrate], the Endothermic peak temperature [1] is listed as 127.0 °C, the “Solubility in organic solvents” value ([2]; organic solvents such as anhydrous ethanol) is listed as “very soluble” and the Solubility in water ([2]; water) is listed as “insoluble in water”.
